Assay results published in PubChem BioAssay (NCI).
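Briefly, cells in 96-well plates were exposed to five compound concentrations for 48 h, and endpoints were estimated by linear interpolation. GI50 is the concentration that inhibits growth by half. Definition used: TGI = concentration required for complete inhibition of growth.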

Key:
Test in all cases: DTP human tumour cell line panel, 48 h
[1] = tested on: 786-0 renal
[2] = tested on: A498 renal
[3] = tested on: A549 NSCLC
[4] = tested on: ACHN renal
[5] = tested on: BT-549 breast
[6] = tested on: CAKI-1 renal
[7] = tested on: CCRF-CEM leukemia
[8] = tested on: COLO 205 colon
[9] = tested on: DU-145 prostate
[10] = tested on: EKVX NSCLC
[11] = tested on: HCC-2998 colon
[12] = tested on: HCT-116 colon
[13] = tested on: HCT-15 colon
[14] = tested on: HL-60(TB) leukemia
[15] = tested on: HOP-62 NSCLC
[16] = tested on: HOP-92 NSCLC
[17] = tested on: HS 578T breast
[18] = tested on: HT29 colon
[19] = tested on: IGROV1 ovarian
[20] = tested on: K-562 leukemia
[21] = tested on: KM12 colon
[22] = tested on: LOX IMVI melanoma
[23] = tested on: M14 melanoma
[24] = tested on: MCF7 breast
[25] = tested on: MDA-MB-231 breast
[26] = tested on: MDA-MB-435
[27] = tested on: MOLT-4 leukemia
[28] = tested on: NCI-H226 lung
[29] = tested on: NCI-H23 lung
[30] = tested on: NCI-H460 lung
[31] = tested on: NCI-H522 lung
[32] = tested on: NCI/ADR-RES ovarian
[33] = tested on: OVCAR-3 ovarian
[34] = tested on: OVCAR-4 ovarian
[35] = tested on: OVCAR-5 ovarian
[36] = tested on: OVCAR-8 ovarian
[37] = tested on: PC-3 prostate
[38] = tested on: RPMI-8226 leukemia
[39] = tested on: RXF 393 renal
[40] = tested on: SF-268 CNS
[41] = tested on: SF-295 CNS
[42] = tested on: SF-539 CNS
[43] = tested on: SK-MEL-2 melanoma
[44] = tested on: SK-MEL-28 melanoma
[45] = tested on: SK-MEL-5 melanoma
[46] = tested on: SK-OV-3 ovarian
[47] = tested on: SN12C renal
[48] = tested on: SNB-19 CNS
[49] = tested on: SNB-75 CNS
[50] = tested on: SR leukemia
[51] = tested on: SW-620 colon
[52] = tested on: T-47D breast
[53] = tested on: TK-10 renal
[54] = tested on: U251 CNS
[55] = tested on: UACC-257 melanoma
[56] = tested on: UACC-62 melanoma
[57] = tested on: UO-31 renal

O=C(NC1CCCCC1)NS(=O)(=O)c1ccc(-n2nc3c(c2-c2cccs2)Cc2ccccc2-3)cc1 was tested, and the GI50 [1] was 32.3 µM, the TGI [1] was > 100 µM and the GI50 [2] was 57.2 µM. The TGI [2] was > 100 µM, the GI50 [3] was 28 µM and the TGI [3] was > 100 µM. It also gave a GI50 [4] of 17.3 µM, a TGI [4] of 33.6 µM and a GI50 [5] of 33.7 µM. The TGI [5] was 94.1 µM, the GI50 [6] was 16 µM and the TGI [6] was 44.4 µM. It also gave a GI50 [7] of 1.15 µM, a TGI [7] of 3.79 µM and a GI50 [8] of 23.3 µM. For the same molecule, the TGI [8] was 51.1 µM, the GI50 [9] was 31.9 µM and the TGI [9] was > 100 µM. It also gave a GI50 [10] of 28.6 µM, a TGI [10] of 65.4 µM and a GI50 [11] of 6.63 µM. For the same molecule, the TGI [11] was 24.1 µM, the GI50 [12] was 31.7 µM and the TGI [12] was > 100 µM. It also gave a GI50 [13] of 17.8 µM, a TGI [13] of 41 µM and a GI50 [14] of 25 µM. For the same molecule, the TGI [14] was 48.8 µM, the GI50 [15] was > 100 µM and the TGI [15] was > 100 µM. It also gave a GI50 [16] of 14.3 µM, a TGI [16] of 29.6 µM and a GI50 [17] of 37.5 µM. For the same molecule, the TGI [17] was > 100 µM, the GI50 [18] was 34.3 µM and the TGI [18] was > 100 µM. For the same molecule, the GI50 [19] was 4.12 µM, the TGI [19] was 23 µM and the GI50 [20] was 10 µM. For the same molecule, the TGI [20] was 35 µM, the GI50 [21] was 34.9 µM and the TGI [21] was > 100 µM. The GI50 [22] was 5.66 µM, the TGI [22] was 33.5 µM and the GI50 [23] was 64.1 µM. The TGI [23] was > 100 µM, the GI50 [24] was > 100 µM and the TGI [24] was > 100 µM. The GI50 [25] was 27.9 µM, the TGI [25] was > 100 µM and the GI50 [26] was 32.5 µM. For the same molecule, the TGI [26] was > 100 µM, the GI50 [27] was 4.99 µM and the TGI [27] was 37.8 µM. For the same molecule, the GI50 [28] was 21.3 µM, the TGI [28] was 64.9 µM and the GI50 [29] was 12.8 µM. The TGI [29] was 33.8 µM, the GI50 [30] was 93 µM and the TGI [30] was > 100 µM. For the same molecule, the GI50 [31] was 12.3 µM, the TGI [31] was 40.3 µM and the GI50 [32] was 20.4 µM. The TGI [32] was 65.4 µM, the GI50 [33] was 24.5 µM and the TGI [33] was > 100 µM. The GI50 [34] was 27 µM, the TGI [34] was > 100 µM and the GI50 [35] was 26.6 µM. It also gave a TGI [35] of 68.6 µM, a GI50 [36] of 25.3 µM and a TGI [36] of 90.5 µM. It also gave a GI50 [37] of 14.5 µM, a TGI [37] of 31.7 µM and a GI50 [38] of 10.7 µM. For the same molecule, the TGI [38] was 30.6 µM, the GI50 [39] was 29.2 µM and the TGI [39] was 84.1 µM. For the same molecule, the GI50 [40] was > 100 µM, the TGI [40] was > 100 µM and the GI50 [41] was 34.9 µM. The TGI [41] was > 100 µM, the GI50 [42] was 27.6 µM and the TGI [42] was 61.8 µM. The GI50 [43] was 23.6 µM, the TGI [43] was 64.7 µM and the GI50 [44] was 34.2 µM. The TGI [44] was > 100 µM, the GI50 [45] was 18.7 µM and the TGI [45] was 43 µM. For the same molecule, the GI50 [46] was 44.5 µM, the TGI [46] was > 100 µM and the GI50 [47] was 21.5 µM. For the same molecule, the TGI [47] was 47.7 µM, the GI50 [48] was 56.8 µM and the TGI [48] was > 100 µM. For the same molecule, the GI50 [49] was 52.5 µM, the TGI [49] was > 100 µM and the GI50 [50] was 1.57 µM. For the same molecule, the TGI [50] was 4.01 µM, the GI50 [51] was 20.7 µM and the TGI [51] was > 100 µM. For the same molecule, the GI50 [52] was 39.7 µM, the TGI [52] was > 100 µM and the GI50 [53] was 17.5 µM. For the same molecule, the TGI [53] was 34.9 µM, the GI50 [54] was 25.6 µM and the TGI [54] was > 100 µM. The GI50 [55] was 24.8 µM, the TGI [55] was 72.7 µM and the GI50 [56] was 19.3 µM. The TGI [56] was 53 µM, the GI50 [57] was 15.4 µM and the TGI [57] was 39.9 µM.
With Cc1cccc(NC(=S)Nc2ccc(Cl)cc2)n1 the TGI [1] was > 100 µM, the TGI [2] was > 100 µM and the TGI [4] was > 100 µM. For the same molecule, the TGI [5] was > 100 µM, the TGI [6] was > 100 µM and the TGI [7] was > 100 µM. For the same molecule, the TGI [8] was > 100 µM, the TGI [9] was > 100 µM and the TGI [10] was > 100 µM. The TGI [11] was > 100 µM, the TGI [12] was > 100 µM and the TGI [13] was > 100 µM. The TGI [14] was > 100 µM, the TGI [15] was > 100 µM and the TGI [16] was > 100 µM. For the same molecule, the TGI [17] was > 100 µM, the TGI [18] was > 100 µM and the TGI [19] was > 100 µM. For the same molecule, the TGI [20] was > 100 µM, the TGI [21] was > 100 µM and the TGI [22] was > 100 µM. For the same molecule, the TGI [23] was > 100 µM, the TGI [24] was > 100 µM and the TGI [25] was > 100 µM. The TGI [26] was > 100 µM, the TGI [27] was > 100 µM and the TGI [28] was > 100 µM. For the same molecule, the TGI [29] was > 100 µM, the TGI [30] was > 100 µM and the TGI [32] was > 100 µM. The TGI [34] was > 100 µM, the TGI [36] was > 100 µM and the TGI [37] was > 100 µM. The TGI [38] was > 100 µM, the TGI [39] was > 100 µM and the TGI [40] was > 100 µM. The TGI [41] was > 100 µM, the TGI [42] was > 100 µM and the TGI [43] was > 100 µM. The TGI [44] was > 100 µM, the TGI [45] was > 100 µM and the TGI [46] was > 100 µM. The TGI [48] was > 100 µM, the TGI [49] was > 100 µM and the TGI [50] was > 100 µM. For the same molecule, the TGI [51] was > 100 µM, the TGI [52] was > 100 µM and the TGI [53] was > 100 µM. The TGI [54] was > 100 µM, the TGI [55] was > 100 µM and the TGI [56] was > 100 µM. For the same molecule, the TGI [57] was > 100 µM.
